The NIST ThermoML archive (doi:10.1021/je050420+)
Numbers after ± are expanded uncertainties.

How the values were obtained:
[1] = xn = mol fraction of the nth substance listed; details: 298.15 K, 101 kPa, Liquid
[2] = refractive index (Na D-line) (dimensionless); details: 298.15 K; 101.33 kPa; Liquid; Standard Abbe refractometry
[3] = Liquid; for mass density / speed of sound: 298.15 K, 101.33 kPa

CCC(C)CO (stereo not given) [2-methyl-1-butanol] + CCOC(C)=O
[1]
Details	mass density [kg/m3]
x2 = 0.05	817.8 ± 0.6
x2 = 0.099	820.9 ± 0.6
x2 = 0.15	824.2 ± 0.5
x2 = 0.2	827.5 ± 0.5
x2 = 0.25	830.9 ± 0.5
x2 = 0.3	834.4 ± 0.5
x2 = 0.349	838 ± 0.5
x2 = 0.399	841.7 ± 0.5
x2 = 0.451	845.6 ± 0.5
x2 = 0.499	849.4 ± 0.5
x2 = 0.549	853.3 ± 0.5
x2 = 0.598	857.3 ± 0.5
x2 = 0.65	861.6 ± 0.5
x2 = 0.699	865.8 ± 0.5
x2 = 0.75	870.2 ± 0.5
x2 = 0.793	874.2 ± 0.5
x2 = 0.846	879.1 ± 0.5
x2 = 0.9	884.2 ± 0.5
x2 = 0.95	889.1 ± 0.4

CCOC(C)=O [ethyl acetate]
Details	Normal boiling temperature [°C]	mass density [kg/m3]	refractive index	speed of sound [m/s]
[2]	–	–	1.36978 ± 0.00072	–
[3]	77.00 ± 0.2	894.3 ± 0.2	–	1139.6 ± 1.6

CC(C)CO [2-methyl-1-propanol]
Details	mass density [kg/m3]	refractive index	speed of sound [m/s]
[2]	–	1.39366 ± 0.00073	–
[3]	797.8 ± 0.6	–	1186.4 ± 1.7

Details	Normal boiling temperature [°C]
[3], Ebulliometric method (Recirculating still)	107.78 ± 0.2

CC(C)CO [2-methyl-1-propanol] + CCOC(C)=O
[1]
Details	mass density [kg/m3]
x2 = 0.049	802.3 ± 0.6
x2 = 0.101	806.8 ± 0.6
x2 = 0.153	811.5 ± 0.6
x2 = 0.202	816 ± 0.6
x2 = 0.251	820.6 ± 0.6
x2 = 0.3	825.2 ± 0.6
x2 = 0.35	829.9 ± 0.6
x2 = 0.401	834.7 ± 0.6
x2 = 0.451	839.5 ± 0.5
x2 = 0.501	844.3 ± 0.5
x2 = 0.55	849 ± 0.5
x2 = 0.6	853.8 ± 0.5
x2 = 0.65	858.8 ± 0.5
x2 = 0.7	863.7 ± 0.5
x2 = 0.751	868.9 ± 0.5
x2 = 0.801	873.8 ± 0.5
x2 = 0.85	878.7 ± 0.5
x2 = 0.9	883.8 ± 0.5
x2 = 0.95	888.9 ± 0.5

CCC(C)CO (stereo not given) [2-methyl-1-butanol]
Details	mass density [kg/m3]	refractive index	speed of sound [m/s]
[2]	–	1.40866 ± 0.00072	–
[3]	814.7 ± 0.6	–	1251.8 ± 1.8

Details	Normal boiling temperature [°C]
[3], Ebulliometric method (Recirculating still)	128.78 ± 0.2
